Data set [1] can be described thus: Chemical stability of salts blended in powder vehicle (tablets or capsules), breakdown products by tlc, ranked. The procedure: In order to screen for chemical stability, each of the salts was blended in a powder vehicle and formed into tablets or capsules. In the case of tablets the vehicle comprised microcrystalline cellulose in 50:50 combination with anhydrous dibasic calcium phosphate. In the case of capsules the vehicles comprised mannitol in 4:1 combination with dried maize starch. These were then stored in sealed vials at 50° and 75° C. for up to three weeks. The drug and any breakdown products were extracted with methanol:chloroform (50:50) and separated on silica tlc plates using a variety of solvent systems.
The results were compared and the salts ranked according to the number and amount of breakdown product produced.

Data set [2] in a line: Stickiness: amlodipine sticking to tablet punch (processability). Format: physicochemical. Particulars: for Stickiness: runs of 50 to 300 tablets, calcium sulphate dihydrate/microcrystalline cellulose/salt 47.5:47.5:5, average from slope; for processability / anti-adhesion properties (in words): qualitative statement. From the text: 4. The final characteristic of an acceptable salt to be considered is the processability, i.e. the compression properties and also the ability not to stick or adhere to the tablet making machinery. For high dose formulations, good compressibility is very important to make elegant tablets. With lower dose tablets the need for good compressibility can be eliminated to a certain extent by the use of suitable diluting excipients called compression aids. Microcrystalline cellulose is a commonly used compression aid. However whatever the dose the adhesion of the drug to the punches of the tablet machine must be avoided. When drug accumulates on the punch surfaces this causes the tablet surface to become pitted and therefore unacceptable. […] In practice it is possible to reduce sticking by wet-massing, careful selection of excipients and the use of high levels of anti-adherents, e.g. magnesium stearate. […] This procedure was then repeated for runs of 100, 150, 200, 250 and 300 tables. After each run the amount of material sticking to the tablet punch was measured after extraction with methanol. The values are plotted and an average value calculated from the slope of the line produced. This same procedure was then repeated for each of the salts of amlodipine.

Data set [3] can be described thus: Aqueous solubility of amlodipine salts and pH at saturation. Format: physicochemical. Particulars: for solubility (in words): qualitative statement. An excerpt: Although amlodipine is effective as the free base, in practice it is best administered in the form of a salt of a pharmaceutically acceptable acid.
1. Generally, it is known in the art that a good aqueous solubility is necessary for good bioavailability. […] In addition, salts which provide solutions having a pH close to that of blood (7.4) are preferred because they are readily biocompatible and can easily be buffered to the required pH range without altering their solubility.

The nature of data set [4]: Hydration / composition after isolation of the salt. Particulars: after manufacture. The data set is classed as physicochemical.
Data set [5] is described as follows: Hygroscopicity: moisture pick-up on exposure to relative humidity. Particulars: for moisture pick-up: 75% relative humidity, 37° C., 24 hours; for hydration state after exposure: 95% relative humidity, 30° C., 3 days. Format: physicochemical. From the text: 3. In order to provide stable formulations it is desirable to have a non-hygroscopic salt. In the solid state where drug content is high, absorbed films of moisture can act as a vector for hydrolysis and chemical breakdown. It is the hygroscopic nature of a drug or its salt which contributes to the free moisture which is normally responsible for instability.
Therefore the besylate salt can be considered to be non-hygroscopic and thus provides stale formulations while minimising the risk of intrinsic chemical breakdown.

Data set [6] is classed as physicochemical. From the text:
Consequently a range of pharmaceutically acceptable salts of amlodipine has been made and evaluated using these criteria: […]

[7] abbreviates: listed as besylate salt of amlodipine.
[8] abbreviates: listed as Benzene sulphonate (besylate).
Where [9] appears, read: listed as Toluene sulphonate (tosylate).

The structures appear in SMILES notation. Counter-ions that a name gives are not always drawn. Like-named read-outs stand apart in the source and are kept apart here.

Broadly, the solubility is the concentration that dissolves in the medium under given conditions. As for `CCOC(=O)C1=C(COCCN)NC(C)=C(C(=O)OC)C1c1ccccc1Cl` (stereo not drawn) [Succinate], the “Stability (rank order)” value in data set [1] is listed as “.dwnarw”. Further, in data set [2], the “Stickiness relative to maleate” value is given as 121% and the Stickiness was 2.39 g Amlodipine cm^-2 tablet^-1. Further, in data set [3], the solubility was found to be 4400 µg/mL and the pH at saturation is listed as 4.9.

As to `CCOC(=O)C1=C(COCCN)NC(C)=C(C(=O)OC)C1c1ccccc1Cl` (stereo not drawn) [Salicylate], the “Stability (rank order)” value in data set [1] (powder vehicle tablets or capsules, sealed vials, 50° and 75° C., up to three weeks, ranked by number and amount of breakdown product, listed from most stable to unstable) is “.dwnarw”. Further, in data set [3], the solubility worked out at 1000 µg/mL.

Regarding `CCOC(=O)C1=C(COCCN)NC(C)=C(C(=O)OC)C1c1ccccc1Cl` (stereo not drawn) [Mesylate], the “Stability (rank order)” value in data set [1] is listed as “.dwnarw”. For the same compound, in data set [2], the “processability / anti-adhesion properties (in words)” value was “good processability”, the “Stickiness relative to maleate” value is 58% and the Stickiness was 1.16 g Amlodipine cm^-2 tablet^-1. In addition, in data set [3] (listed as Methane sulphonate (mesylate)), the pH at saturation amounted to 3.1. Further, the “hydration after isolation as the anhydride” value in data set [4] was “equilibrates to the monohydrate”.

Turning to `CCOC(=O)C1=C(COCCN)NC(C)=C(C(=O)OC)C1c1ccccc1Cl` (stereo not drawn) [Hydrochloride], in data set [2], the “Stickiness relative to maleate” value is 127% and the Stickiness is on record as 2.51 g Amlodipine cm^-2 tablet^-1. In data set [3], the solubility turned out to be 50000 µg/mL and the pH at saturation is on record as 3.5.

`CCOC(=O)C1=C(COCCN)NC(C)=C(C(=O)OC)C1c1ccccc1Cl` (stereo not drawn) [Free base, 3-ethyl 5-methyl 2-(2-aminoethoxymethyl)-4-(2-chlorophenyl)-1,4-dihydro-6-methylpyridine-3,5-dicarboxylate]: in data set [2], the “Stickiness relative to maleate” value was 102% and the Stickiness is 2.02 g Amlodipine cm^-2 tablet^-1.

For the compound `CCOC(=O)C1=C(COCCN)NC(C)=C(C(=O)OC)C1c1ccccc1Cl` (stereo not drawn) [Besylate, amlodipine benzenesulphonate], in data set [5], the “hygroscopicity (overall conclusion)” value is given as “non-hygroscopic”, the moisture pick-up entry is recorded as “do not pick up any moisture” and the “hydration state after exposure” value was “remain anhydrous”. In data set [5] (setting [7]), the “hygroscopicity (overall conclusion)” value was “non-hygroscopicity”. Moreover, in data set [1], the “Stability (rank order)” value was “most stable” and the “stability (overall conclusion)” value was “good stability”. In addition, in data set [2], the “processability / anti-adhesion properties (in words)” value is listed as “superior anti-adhesion properties to the maleate”, the “Stickiness relative to maleate” value is reported as 59% and the Stickiness is 1.17 g Amlodipine cm^-2 tablet^-1. Besides, the “processability / anti-adhesion properties (in words)” value in data set [2] (setting [7]) is reported as “good processability”. Moreover, in data set [3] (setting [8]), the pH at saturation was 6.6 and the solubility turned out to be 4600 µg/mL. Further, the “solubility (in words)” value in data set [3] (setting [7]) is recorded as “good solubility characteristics”.

On to `CCOC(=O)C1=C(COCCN)NC(C)=C(C(=O)OC)C1c1ccccc1Cl` (stereo not drawn) [Acetate], for which, in data set [1], the “Stability (rank order)” value was “.dwnarw”. For the same compound, in data set [3], the solubility was 50000 µg/mL and the pH at saturation was determined as 6.6.

Take `CCOC(=O)C1=C(COCCN)NC(C)=C(C(=O)OC)C1c1ccccc1Cl` (stereo not drawn) [Maleate]: in data set [5], the moisture pick-up result is “do not pick up any moisture” and the “hydration state after exposure” value was “remain anhydrous”. In data set [1], the “Stability (rank order)” value is on record as “.dwnarw”. In data set [2], the “Stickiness relative to maleate” value was 100% and the Stickiness is 1.98 g Amlodipine cm^-2 tablet^-1. Also, in data set [3], the solubility is 4500 µg/mL, the pH at saturation is 4.8 and the “solubility (in words)” value is on record as “excellent solubility”. For the same compound, in data set [6], the stability in solution entry is on record as “tends to break-down in solution after a few weeks”.

As for `CCOC(=O)C1=C(COCCN)NC(C)=C(C(=O)OC)C1c1ccccc1Cl` (stereo not drawn) [Tosylate], in data set [5], the moisture pick-up result is recorded as “do not pick up any moisture” and the “hydration state after exposure” value was “formed the dihydrate salt”. In addition, in data set [1], the “Stability (rank order)” value was “.dwnarw”. Moreover, in data set [2], the “Stickiness relative to maleate” value is on record as 98% and the Stickiness is given as 1.95 g Amlodipine cm^-2 tablet^-1. In data set [3] (setting [9]), the pH at saturation is recorded as 5.9 and the solubility was determined as 900 µg/mL.
